Laboratory results as given in US20260226041A1 (ARIGENX THERAPEUTICS CO., LTD., priority 2023, published 2026).
Counter-ions that a name gives are not always drawn. Like-named read-outs stand apart in the source and are kept apart here.

Legend:
[1] = molecular target: mouse AHR (Mus musculus, UniProt P30561); test: Mouse AHR agonist luciferase assay (6x XRE Nano-luc reporter in Hepa1-6 cells);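 also: stable Hepa1-6 reporter line, 4–24 h exposure, 11-point serial dilution, Nano-Glo luminescence as fold over medium-only baseline, EC50 from four-parameter fit of activation fold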
mouse AHR, sequence (P30561 10-805 limits assumed): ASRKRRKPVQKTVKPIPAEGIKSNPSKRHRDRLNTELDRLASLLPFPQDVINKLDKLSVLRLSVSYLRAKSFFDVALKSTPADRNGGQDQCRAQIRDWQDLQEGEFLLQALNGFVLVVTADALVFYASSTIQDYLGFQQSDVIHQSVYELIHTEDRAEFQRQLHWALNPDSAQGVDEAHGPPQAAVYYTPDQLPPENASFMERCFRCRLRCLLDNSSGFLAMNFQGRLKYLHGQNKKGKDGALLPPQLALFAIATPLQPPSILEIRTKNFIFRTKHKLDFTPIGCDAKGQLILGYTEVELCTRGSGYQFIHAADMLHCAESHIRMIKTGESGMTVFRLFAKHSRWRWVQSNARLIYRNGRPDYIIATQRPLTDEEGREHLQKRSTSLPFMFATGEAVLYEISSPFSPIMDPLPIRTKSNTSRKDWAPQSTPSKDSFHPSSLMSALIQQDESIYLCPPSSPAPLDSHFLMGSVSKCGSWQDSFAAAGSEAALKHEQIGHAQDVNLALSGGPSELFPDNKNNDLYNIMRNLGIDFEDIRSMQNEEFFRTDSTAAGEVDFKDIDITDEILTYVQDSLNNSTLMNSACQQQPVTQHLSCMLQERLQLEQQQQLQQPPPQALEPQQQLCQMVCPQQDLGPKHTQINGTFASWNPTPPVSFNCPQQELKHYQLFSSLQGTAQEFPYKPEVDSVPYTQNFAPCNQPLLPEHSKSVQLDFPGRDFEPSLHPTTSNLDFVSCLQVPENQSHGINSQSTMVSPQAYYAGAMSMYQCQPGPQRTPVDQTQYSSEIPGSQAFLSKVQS
mouse AHR, sequence (P53762 whole entry partner): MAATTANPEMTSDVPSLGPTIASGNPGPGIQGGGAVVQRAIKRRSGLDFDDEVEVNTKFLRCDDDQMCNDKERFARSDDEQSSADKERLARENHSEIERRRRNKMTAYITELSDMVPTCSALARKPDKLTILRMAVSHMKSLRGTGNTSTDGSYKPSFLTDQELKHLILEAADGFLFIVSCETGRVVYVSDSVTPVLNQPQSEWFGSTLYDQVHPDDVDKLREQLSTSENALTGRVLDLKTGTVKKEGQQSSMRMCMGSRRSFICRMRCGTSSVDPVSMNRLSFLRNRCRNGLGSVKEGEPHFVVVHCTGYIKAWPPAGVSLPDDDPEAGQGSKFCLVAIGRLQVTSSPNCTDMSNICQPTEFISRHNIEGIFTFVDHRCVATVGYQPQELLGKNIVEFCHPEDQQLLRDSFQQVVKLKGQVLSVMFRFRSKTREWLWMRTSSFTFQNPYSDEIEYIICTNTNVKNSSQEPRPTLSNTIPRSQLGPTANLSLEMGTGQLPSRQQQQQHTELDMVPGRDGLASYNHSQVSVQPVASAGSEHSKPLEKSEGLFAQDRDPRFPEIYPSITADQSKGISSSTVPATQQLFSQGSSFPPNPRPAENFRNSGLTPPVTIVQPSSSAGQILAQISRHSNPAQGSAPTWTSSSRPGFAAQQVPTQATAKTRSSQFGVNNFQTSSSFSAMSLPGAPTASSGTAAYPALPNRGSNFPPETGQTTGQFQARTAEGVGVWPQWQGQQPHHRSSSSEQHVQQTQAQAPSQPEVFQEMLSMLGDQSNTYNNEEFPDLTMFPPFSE
Description: The reporter gene plasmid was transfected into mouse hepatoma Hepa1-6 cells by a conventional liposome transfection method in the art, and stably expressing cells were selected by puromycin for the mouse AHR agonist luciferase assay.
On day one, the stably expressing reporter gene Hepa1-6 cell line was counted and seeded into a white opaque 96-well plate at a density of 1×10^4 cells per well −8×10^4 cells per well using 100 μL of phenol red-free Dulbecco's Modified Eagle Medium (DMEM) (DMEM without phenol red, 10% fetal bovine serum). The cells were cultured in an incubator maintained at 37° C. with 5% CO2 for 24 hours.
Test compounds were prepared as 10 mM stock solutions in DMSO and stored at 4° C. protected from light. Before treatment, the compound stock solutions, positive control compounds (e.g., dioxin, ITE, or kynurenine), and a negative control compound (DMSO) were subjected to preliminary dilution (determined based on pre-experiments) with complete medium without tryptophan and phenol red, followed by 3- to 20-fold serial dilutions to 11 concentration points to obtain 10× dilution solutions. When treating the cells, 10 μL of medium was first aspirated from the 96-well plate containing the seeded cells, and then 10 μL of the serially diluted 10× dilution solution was added. Each compound was tested in duplicate, and each duplicate experiment included a well with a concentration of 0 (i.e., containing only medium) to determine the baseline. The reporter cells were returned to the incubator and incubated for 4 to 24 hours after treatment.
After treatment, 100 μL/well of Nano-Glo Luciferase Assay Reagent was added to the 96-well plate, and the RLU of each well was measured. The RLU values for the wells with the concentration of 0 on the 96-well plates were averaged to calculate the baseline Ave RLU^Vehicle The activity of AHR induced by the test compounds at different concentrations was calculated according to Formula (1) based on the ratio of RLU^Test Cmpd from the experimental groups to the baseline Ave RLU^Vehicle, to determine the activation fold.
The activation fold and the corresponding compound concentration were fitted using GraphPad Prism 9 with [Agonist] vs. response—variable slope (four parameters) to determine the EC50 of the compound for AHR activation.

[2] = molecular target: T1, human AHR (Homo sapiens, UniProt P35869); test: Human AHR agonist luciferase assay (CYP1A1 promoter Nano-luc reporter in HepG2 cells);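 also: stably transfected HepG2 clone, DRE-containing 1200 bp promoter region driving Nano-luc, treated 4 to 24 h with 11-point dilutions in tryptophan-free medium, medium-only wells as baseline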
T1 sequence (P35869 11-848): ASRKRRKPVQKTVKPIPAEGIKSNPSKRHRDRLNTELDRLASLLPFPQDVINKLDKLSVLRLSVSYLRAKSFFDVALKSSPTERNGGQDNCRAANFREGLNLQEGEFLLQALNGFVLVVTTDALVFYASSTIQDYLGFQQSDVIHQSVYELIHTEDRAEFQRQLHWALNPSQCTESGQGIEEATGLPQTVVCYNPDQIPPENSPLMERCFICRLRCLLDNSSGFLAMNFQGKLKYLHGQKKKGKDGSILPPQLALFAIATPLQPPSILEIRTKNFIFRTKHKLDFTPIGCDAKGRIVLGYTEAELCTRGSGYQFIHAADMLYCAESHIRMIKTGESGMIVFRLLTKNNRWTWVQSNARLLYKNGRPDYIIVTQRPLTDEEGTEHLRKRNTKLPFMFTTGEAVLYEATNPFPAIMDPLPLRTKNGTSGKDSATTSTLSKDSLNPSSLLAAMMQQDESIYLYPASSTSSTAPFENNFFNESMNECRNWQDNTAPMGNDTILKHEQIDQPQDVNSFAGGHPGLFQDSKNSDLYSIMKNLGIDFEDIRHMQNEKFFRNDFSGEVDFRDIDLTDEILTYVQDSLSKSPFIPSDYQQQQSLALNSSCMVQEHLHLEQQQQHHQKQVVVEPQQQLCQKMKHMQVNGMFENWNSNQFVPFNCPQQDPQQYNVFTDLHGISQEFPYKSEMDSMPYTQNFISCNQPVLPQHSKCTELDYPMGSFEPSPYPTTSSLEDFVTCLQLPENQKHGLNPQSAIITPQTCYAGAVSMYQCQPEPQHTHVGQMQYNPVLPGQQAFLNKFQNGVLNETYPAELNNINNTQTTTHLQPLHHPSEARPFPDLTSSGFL
Description: To detect AHR activation, a reporter gene plasmid was constructed by placing the gene sequence from −1200 bp to 0 bp upstream of CYP1A1 in front of a Nano-luc luciferase reporter gene according to conventional construction methods of reporter gene plasmids in the art. The reporter gene plasmid was transfected into human hepatoma HepG2 cells by a conventional liposome transfection method in the art, and stably expressing cells were selected by puromycin. The selected cells were diluted to a concentration of 5 cells/mL and seeded into a 96-well plate at 100 μL/well, and single clones were obtained after growth. A single clone with normal morphology, normal growth, and the highest induction signal was selected for the human AHR agonist luciferase assay.
On day one, the HepG2 monoclonal cell line stably expressing reporter gene was counted and seeded into a white opaque 96-well plate at a density of 1×10^4 cells per well −8×10^4 cells per well using 100 μL of complete medium without tryptophan and phenol red (minimal essential medium (MEM) without tryptophan and phenol red, 10% (v/v) fetal bovine serum, 1× non-essential amino acids, 1× sodium pyruvate, and 1× GlutaMax). The cells were cultured in an incubator maintained at 37° C. with 5% (v/v) CO2 for 24 hours.
Test compounds were prepared as 10 mmol/L stock solutions in dimethyl sulfoxide (DMSO) and stored at 4° C. protected from light. Before treatment, the compound stock solutions, positive control compounds (e.g., dioxin, 2-(1H-indole-3-carbonyl)thiazole-4-carboxylic acid methyl ester (ITE), or kynurenine), and a negative control compound (DMSO) were subjected to preliminary dilution (determined based on pre-experiments) with the complete medium without tryptophan and phenol red, followed by 3- to 20-fold serial dilutions to 11 concentration points to obtain 2× dilution solutions. When treating the cells, 50 μL of medium was first aspirated from the 96-well plate containing the seeded cells, and then 50 μL of the serially diluted 2× dilution solution was added. Each compound was tested in duplicate, and each duplicate experiment included a well with a concentration of 0 (i.e., containing only the medium) to determine the baseline. The reporter cells were returned to the incubator and incubated for 4 to 24 hours after treatment.
After treatment, 100 μL/well of Nano-Glo Luciferase Assay Reagent was added to the 96-well plate, and the relative light unit (RLU) of each well was measured. The RLU values for the wells with the concentration of 0 on the 96-well plates were averaged to calculate the baseline Ave RLU^Vehicle. The activity of AHR induced by the test compounds at different concentrations was calculated according to Formula (1) based on the ratio of RLU^Test Cmpd from the experimental groups to the baseline Ave RLU^Vehicle, to determine the activation fold.
The activation fold and the corresponding compound concentration were fitted using GraphPad Prism 9 with [Agonist] vs. response—variable slope (four parameters) to calculate the EC50 of the compound for AHR activation.

[3] = molecular target: T2, rat AHR (Rattus norvegicus, UniProt P41738); test: Rat AHR agonist luciferase assay (6x XRE Nano-luc reporter in H-4-II-E cells); type: cell-based; conditions: AHR activation, rat hepatoma H-4-II-E reporter cells, incubated 4 to 24 hours; read-out: H4IIE EC50
T2 construct: The reporter gene was introduced into a genome of rat hepatoma H-4-II-E cells via lentiviral infection; endogenous in cells; host or cells: H-4-II-E (rat hepatoma) with a lentivirally integrated 6x XRE Nano-luc reporter
T2 sequence (P41738 10-853): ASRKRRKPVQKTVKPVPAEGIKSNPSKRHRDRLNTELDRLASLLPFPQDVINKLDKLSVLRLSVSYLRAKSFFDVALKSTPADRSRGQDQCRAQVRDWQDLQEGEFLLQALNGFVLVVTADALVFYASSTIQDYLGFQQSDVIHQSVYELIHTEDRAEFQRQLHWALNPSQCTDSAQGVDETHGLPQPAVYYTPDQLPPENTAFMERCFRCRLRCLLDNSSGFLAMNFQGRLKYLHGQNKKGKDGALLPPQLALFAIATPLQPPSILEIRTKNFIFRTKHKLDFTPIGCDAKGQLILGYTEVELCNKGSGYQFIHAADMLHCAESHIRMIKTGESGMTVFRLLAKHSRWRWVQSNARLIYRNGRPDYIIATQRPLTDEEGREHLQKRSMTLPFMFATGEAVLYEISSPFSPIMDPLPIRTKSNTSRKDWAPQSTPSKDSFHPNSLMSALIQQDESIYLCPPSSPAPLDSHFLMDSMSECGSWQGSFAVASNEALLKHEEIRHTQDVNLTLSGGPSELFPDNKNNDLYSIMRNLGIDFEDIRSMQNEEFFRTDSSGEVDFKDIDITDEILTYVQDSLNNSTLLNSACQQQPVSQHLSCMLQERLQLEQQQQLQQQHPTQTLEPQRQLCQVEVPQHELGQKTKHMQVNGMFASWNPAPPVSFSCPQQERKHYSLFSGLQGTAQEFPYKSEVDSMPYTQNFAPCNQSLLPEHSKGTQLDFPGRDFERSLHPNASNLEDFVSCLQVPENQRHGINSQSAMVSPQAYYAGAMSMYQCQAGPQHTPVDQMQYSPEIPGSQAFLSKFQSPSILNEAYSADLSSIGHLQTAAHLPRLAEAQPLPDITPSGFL
Description: A lentivirus containing the reporter gene was generated by co-transfecting the transfer plasmid with packaging plasmids into 293T cells using conventional transfection methods in the art, followed by purification. The reporter gene was introduced into a genome of rat hepatoma H-4-II-E cells via lentiviral infection, and cells stably expressing the reporter gene were selected with puromycin for the rat AHR agonist luciferase assay.

[4] = read-out: HepG2 EC50, AHR activation, human hepatoma HepG2 reporter cells, incubated 4 to 24 hours

Row | EC50 [1] [nM] | EC50 [2] [nM] | EC50 [3] [nM] | EC50 ([1]; read-out: Hepa 1-6 EC50, AHR activation, mouse hepatoma Hepa1-6 reporter cells, incubated 4 to 24 hours) [nM] | Compound | EC50 [2, 4] [nM]
1 | < 100 | < 500 | – | – | CC1CC(c2csc(C(=O)c3c[nH]c4ccc(F)cc34)n2)C(=O)O1 (centres unmarked) [Compound 8-4] | –
2 | < 100 | < 500 | ≤ 10 | – | COc1ccc2[nH]cc(C(=O)c3nc(C4CCOC4=O)cs3)c2c1 (centres unmarked) [Compound 1-5] | –
3 | < 100 | < 500 | – | – | CC1CC(c2csc(C(=O)c3c[nH]c4cc5c(cc34)OCO5)n2)C(=O)O1 (centres unmarked) [Compound 8-6] | –
4 | – | < 500 | – | – | Cc1ccc2c(C(=O)c3nc(C4CCOC4=O)cs3)c[nH]c2c1 (centres unmarked) [Compound 1-8] | –
5 | < 100 | < 500 | ≤ 10 | – | COc1ccc2c(C(=O)c3nc(C4CCOC4=O)cs3)c[nH]c2c1 (centres unmarked) [Compound 1-3] | –
6 | < 100 | < 500 | – | – | COc1ccc2c(C(=O)c3nc(C4(F)CCOC4=O)cs3)c[nH]c2c1 (centres unmarked) [Compound 3-3] | –
7 | – | – | ≤ 10 | < 100 | O=C(c1nc(C2CCOC2=O)cs1)c1c[nH]c2ccccc12 (single isomer, unassigned) [Compound 1-isomer-B] | –
8 | – | 500 to 2000 | – | – | COc1ccc2[nH]cc(C(=O)c3nc(C4(F)CCOC4=O)cs3)c2c1 (centres unmarked) [Compound 3-5] | –
9 | – | – | – | – | C[C@@H]1C[C@@H](c2csc(C(=O)c3c[nH]c4ccccc34)n2)C(=O)O1 [Compound 8-trans-1] | < 500
10 | – | < 500 | – | – | O=C(c1nc(C2(Cl)CCOC2=O)cs1)c1c[nH]c2ccc(F)cc12 (centres unmarked) [Compound 4-4] | –
11 | < 100 | < 500 | – | – | COc1ccc2c(C(=O)c3nc(C4CC(C)OC4=O)cs3)c[nH]c2c1 (centres unmarked) [Compound 8-3] | –
12 | – | – | – | – | C[C@H]1C[C@@H](c2csc(C(=O)c3c[nH]c4ccccc34)n2)C(=O)O1 [Compound 8-cis-2] | < 500
13 | < 100 | < 500 | ≤ 10 | – | O=C(c1nc(C2CCOC2=O)cs1)c1c[nH]c2cc3c(cc12)OCO3 (centres unmarked) [Compound 1-6] | –
14 | < 100 | < 500 | 2000 to 100000 | – | COc1ccc2[nH]cc(C(=O)c3nc(C4CCN(C)C4=O)cs3)c2c1 (centres unmarked) [Compound 7-5] | –
15 | 100 to 2000 | < 500 | – | – | O=C(c1nc(C2(F)CCOC2=O)cs1)c1c[nH]c2ccc(F)cc12 (centres unmarked) [Compound 3-4] | –
16 | < 100 | < 500 | ≤ 10 | – | O=C(c1nc(C2CCOC2=O)cs1)c1c[nH]c2ccccc12 (centres unmarked) [Compound 1, 3-[2-(1H-indole-3-carbonyl)-1,3-thiazol-4-yl]tetrahydrofuran-2-one] | –
17 | – | – | – | – | C[C@H]1C[C@H](c2csc(C(=O)c3c[nH]c4ccccc34)n2)C(=O)O1 [Compound 8-trans-2] | < 500

Row | EC50 [1] [nM] | EC50 [2] [nM] | EC50 [3] [nM] | EC50 ([1]; read-out: Hepa 1-6 EC50, AHR activation, mouse hepatoma Hepa1-6 reporter cells, incubated 4 to 24 hours) [nM] | Compound | EC50 [2, 4] [nM]
18 | 100 to 2000 | 500 to 2000 | – | – | CC(C)[C@H](N)C(=O)n1cc(C(=O)c2nc(C3CCOC3=O)cs2)c2ccccc21 (stereo partly drawn) [Compound 9, 3-[2-({1-[(2S)-2-amino-3-methylbutanoyl]indol-3-yl}carbonyl)-1,3-thiazol-4-yl]tetrahydrofuran-2-one hydrochloride] | –
19 | – | < 500 | 2000 to 100000 | – | CN1CCC(c2csc(C(=O)c3c[nH]c4ccccc34)n2)C1=O (centres unmarked) [Compound 7] | –
20 | < 100 | < 500 | – | – | COc1ccc2[nH]cc(C(=O)c3nc(C4CC(C)OC4=O)cs3)c2c1 (centres unmarked) [Compound 8-5] | –
21 | – | – | – | – | C[C@@H]1C[C@H](c2csc(C(=O)c3c[nH]c4ccccc34)n2)C(=O)O1 [Compound 8-cis-1] | < 500
22 | – | < 500 | – | – | N#Cc1ccc2c(C(=O)c3nc(C4CCOC4=O)cs3)c[nH]c2c1 (centres unmarked) [Compound 1-9] | –
23 | < 100 | < 500 | – | – | O=C1OCC=C1c1csc(C(=O)c2c[nH]c3ccccc23)n1 [Compound 5] | –
24 | 100 to 2000 | 500 to 2000 | – | – | O=C(c1nc(C2CCOC2=O)cs1)c1cn(P(=O)(O)O)c2ccccc12 (centres unmarked) [Compound 11] | –
25 | – | < 500 | – | – | O=C(c1nc(C2CCOC2=O)cs1)c1c[nH]c2cc(Cl)ccc12 (centres unmarked) [Compound 1-7] | –
26 | – | < 500 | 2000 to 100000 | – | COc1ccc2c(C(=O)c3nc(C4CCN(C)C4=O)cs3)c[nH]c2c1 (centres unmarked) [Compound 7-3] | –
27 | < 100 | < 500 | – | – | O=C(c1nc(C2(F)CCOC2=O)cs1)c1c[nH]c2cc(F)ccc12 (centres unmarked) [Compound 3-2] | –
28 | – | < 500 | 2000 to 100000 | – | CN1CCC(c2csc(C(=O)c3c[nH]c4cc(F)ccc34)n2)C1=O (centres unmarked) [Compound 7-2] | –
29 | – | < 500 | – | – | COc1ccc2c(C(=O)c3nc(C4(Cl)CCOC4=O)cs3)c[nH]c2c1 (centres unmarked) [Compound 4-3] | –
30 | – | 500 to 2000 | – | – | O=C1OCC(O)=C1c1csc(C(=O)c2c[nH]c3ccccc23)n1 [Compound 6] | –
31 | < 100 | < 500 | – | – | CC1CC(c2csc(C(=O)c3c[nH]c4cc(F)ccc34)n2)C(=O)O1 (centres unmarked) [Compound 8-2] | –
32 | – | < 500 | 2000 to 100000 | – | CN1CCC(c2csc(C(=O)c3c[nH]c4ccc(F)cc34)n2)C1=O (centres unmarked) [Compound 7-4] | –
33 | < 100 | < 500 | – | – | O=C(c1nc(C2(F)CCOC2=O)cs1)c1c[nH]c2ccccc12 (centres unmarked) [Compound 3] | –
34 | 100 to 2000 | 500 to 2000 | – | – | COCCOCCOCCOCC(=O)n1cc(C(=O)c2nc(C3CCOC3=O)cs2)c2ccccc21 (centres unmarked) [Compound 15, 3-{2-[1-(3,6,9,12-tetraoxatridecanoyl)-1H-indole-3-carbonyl]thiazol-4-yl}dihydrofuran-2(3H)-one] | –

Row | Compound | EC50 [1] [nM] | EC50 [2] [nM] | EC50 [3] [nM] | EC50 ([1]; read-out: Hepa 1-6 EC50, AHR activation, mouse hepatoma Hepa1-6 reporter cells, incubated 4 to 24 hours) [nM] | EC50 [2, 4] [nM]
35 | COCCOCCOCCOCC(=O)OCn1cc(C(=O)c2nc(C3CCOC3=O)cs2)c2ccccc21 (centres unmarked) [Compound 14, 3,6,9,12-tetraoxatridecanoic acid {3-[4-(2-oxotetrahydrofuran-3-yl)thiazole-2-carbonyl]-1H-indol-1-yl}methyl ester] | 100 to 2000 | 500 to 2000 | – | – | –
36 | O=C(c1nc(C2(O)CCOC2=O)cs1)c1c[nH]c2ccc(F)cc12 (centres unmarked) [Compound 2-4] | < 100 | < 500 | – | – | –
37 | COc1ccc2[nH]cc(C(=O)c3nc(C4(O)CCOC4=O)cs3)c2c1 (centres unmarked) [Compound 2-5] | < 100 | < 500 | – | – | –
38 | COc1ccc2c(C(=O)c3nc(C4(O)CCOC4=O)cs3)c[nH]c2c1 (centres unmarked) [Compound 2-3] | < 100 | < 500 | ≤ 10 | – | –
39 | CC(C)[C@H](N)C(=O)OCn1cc(C(=O)c2nc(C3CCOC3=O)cs2)c2ccccc21 (some centres unmarked) [Compound 13, hydrochloride] | 100 to 2000 | 500 to 2000 | – | – | –
40 | O=C(c1nc(C2CCOC2=O)cs1)c1cn(CO)c2ccccc12 (centres unmarked) [Compound 10, 3-{2-[1-(hydroxymethyl)indole-3-carbonyl]thiazol-4-yl}tetrahydrofuran-2-one] | 100 to 2000 | 500 to 2000 | – | – | –
41 | O=C(c1nc(C2(O)CCOC2=O)cs1)c1c[nH]c2ccccc12 (centres unmarked) [Compound 2] | < 100 | < 500 | ≤ 10 | – | –
42 | O=C(c1nc(C2CCOC2=O)cs1)c1cn(COP(=O)(O)O)c2ccccc12 (centres unmarked) [Compound 12, {3-[4-(2-oxotetrahydrofuran-3-yl)thiazole-2-carbonyl]-1H-indol-1-yl}methylphosphoric acid] | 100 to 2000 | 500 to 2000 | – | – | –
